Experimental findings from US20240239814A1, “Complexes Of CU(I) As Antitumor Agents” (priority 2021, published 2024) are described below.

Data set [1] concerns human breast carcinoma cells MCF-7. The data set is described as follows: MTT cytotoxicity assay, 72 h, MCF-7. Type of data set: cell-based. The note with it: MTT test, mean ± SD. An excerpt:
(§1) Human breast (MCF-7), lung (H157), pancreatic (PSN-1) and colon (HCT-15 and LoVo) carcinoma cell lines were obtained from the American Type Culture Collection (ATCC, Rockville, MD). A431 are human cervical carcinoma cells kindly provided by Prof. F. Zunino (Molecular Pharmacology Unit, Experimental Oncology and Molecular Medicine, Istituto Nazionale dei Tumori, Milan, Italy). […] G. Marverti (Dept. of Biomedical Science, University of Modena, Italy).
(§2) Briefly, depending upon the growth characteristics of the cell line, 3-8×10^3 cells well^−1, were seeded in 96-well microplates in growth medium (100 μL) and then incubated at 37° C. in a 5% carbon dioxide atmosphere. After 24 h, the medium was removed and replaced with a fresh one containing the compound to be studied, at the appropriate concentration, dissolved in 0.9% sodium chloride solution just before use. Triplicate cultures were established for each treatment. After 72 h, each well was treated with 10 μL of a 5 mg mL^−1 MTT saline solution and, after 5 h of incubation, 100 μL of a sodium dodecylsulfate (SDS) solution in 0.01 M HCl were added. After an overnight incubation, the inhibition of cell growth induced by the tested complexes was determined by measuring the absorbance of each well at 570 nm using a Bio-Rad 680 microplate reader. Mean absorbance for each drug dose was expressed as percentage of the control and plotted vs. drug concentration. Dose-response curves were fitted and IC50 values were calculated with four parameter logistic model (4PL).
(§3) The cytotoxicity was evaluated by means of the MTT test for 72 h treatment with increasing concentrations of the tested compounds.
(§4) Cytotoxic activity was examined against a panel of human tumor cell lines. […] The growth inhibitory effect was evaluated by means of MTT test. Cells (5-8×10^3 mL^−1, depending on the growth characteristics of the cell line) were treated for 72 h with increasing concentrations of tested compounds. […] SD=standard deviation, -=not detected.

Data set [2] deals with human lung carcinoma cells H157. The data set is described as follows: MTT cytotoxicity assay, 72 h, H157. Type of data set: cell-based. The following applies: MTT test, mean ± SD.
Text: as §1, §2, §3, §4

For data set [3], the system named is human pancreatic carcinoma cells PSN-1. The data set is described as follows: MTT cytotoxicity assay, 72 h, PSN-1. Format: cell-based. The note with it: MTT test, mean ± SD.
Text: as §1, §2, §3, §4

The test system of data set [4] is human ovarian cancer cells 2008. As to the kind of experiment: MTT cytotoxicity assay, 72 h, 2008.
Text: as §1, §2, §3, §4, §3, §4

The subject of data set [5] is human cervical carcinoma cells A431. The data set is described as follows: MTT cytotoxicity assay, 72 h, A431. Type of data set: cell-based. The following applies: MTT test, mean ± SD.
Text: as §1, §2, §3, §4

A further data set relates to LoVo-OXP cells. As to the kind of experiment: MTT cytotoxicity assay, 72 h, LoVo-OXP (oxaliplatin resistant). Type of data set: cell-based, human. The following applies: MTT test, mean ± SD.
Text: as §1, §2
(§5) A LoVo cell line retaining a multidrug resistance phenotype was also considered (LoVo MDR). Cross-resistance profiles were evaluated by means of the resistance factor (RF), which is defined as the ratio between the IC50 value for the resistant cells and that arising from the sensitive cells (Table 3).
Cells (5×10^3 mL-1) were treated for 72 h with increasing concentrations of tested compounds. Cytotoxicity was assessed by MTT test. […] Resistant Factor (in brackets) is defined as IC50 resistant/parent line.

Data set [6] concerns human colon cancer cells LoVo. The data set is described as follows: MTT cytotoxicity assay, 72 h, LoVo. The note with it: MTT test, mean ± SD. Type of data set: cell-based. On the procedure:
Triplicate cultures were established for each treatment.
. A LoVo cell line retaining a multidrug resistance phenotype was also considered (LoVo MDR). Cross-resistance profiles were evaluated by means of the resistance factor (RF), which is defined as the ratio between the IC50 value for the resistant cells and that arising from the sensitive cells (Table 3).
Cytotoxicity was assessed by MTT test. […]. Resistant Factor (in brackets) is defined as IC50 resistant/parent line.

Data set [7] has as its system human colon carcinoma cells HCT-15. As to the kind of experiment: MTT cytotoxicity assay, 72 h, HCT-15. Type of data set: cell-based. The note with it: MTT test, mean ± SD.
Text: as §1, §2, §3, §4

A further data set relates to LoVo MDR cells. The data set is described as follows: MTT cytotoxicity assay, 72 h, LoVo MDR (multidrug resistant). The note with it: MTT test, mean ± SD. Format: cell-based, human.
Text: as §1, §2, §5
Cells (5×10^3 mL-1) were treated for 72 h with increasing concentrations of tested compounds. Cytotoxicity was assessed by MTT test. […] Resistant Factor (in brackets) is defined as IC50 resistant/parent line. […]

Data set [8] relates to murine Lewis lung carcinoma (LLC). As to the kind of experiment: In vivo anticancer activity toward Lewis lung carcinoma. The arrangement: species or system C57BL mice. The note with it: daily i.p. from day 9, measured at day 15, 6: 5 mg kg^−1, 9: 3 mg kg^−1, cisplatin: 1.5 mg kg^−1. The method, then:
The mice were purchased from Charles River, Italy, housed in steel cages under controlled environmental conditions (constant temperature, humidity, and 12 h dark/light cycle), and alimented with commercial standard feed and tap water ad libitum. Animals were observed daily, and body weight and food intake recorded. The Lewis lung carcinoma (LLC) cell line was purchased from ECACC, UK. The LLC cell line was maintained in D-MEM (Euroclone) supplemented with 10% heat-inactivated FBS (Euroclone), 10 mM L-glutamine, 100 U mL^−1 penicillin, and 100 μg mL^−1 streptomycin in a 5% CO2 air incubator at 37° C. […] At day 15, animals were sacrificed, the legs were amputated at the proximal end of the femur, and the inhibition of tumor growth was determined according to the difference in weight of the tumor-bearing leg and the healthy leg of the animals expressed as % referred to the control animals. Body weight was measured every two days and was taken as a parameter for systemic toxicity. All the values are the means±S.D. of not less than three measurements. Multiple comparisons were made by Tukey-Kramer test (** p<0.01; * p or °p<0.05).
For the assessment of the adverse side effects, changes in body weights of tumor-bearing mice were monitored daily (FIG. 1).
Starting from day 9 after tumor implantation, tested compounds were daily administered i.p. At day 15, mice were sacrified and tumor growth was detected as described above.

Where [9] appears, read: read-out: IC50 2008, MTT test, mean ± SD, Table 1.
[10] abbreviates: read-out: IC50 2008, MTT test, mean ± SD, Table 2.

Like-named read-outs stand apart in the source and are kept apart here. Marks after values point to notes of the source that are not given here.

With `F[B-](F)(F)F.O=C(O)c1ccccc1P(c1ccccc1)c1ccccc1.O=C(O)c1ccccc1P(c1ccccc1)c1ccccc1.[Cu+]` [Compound 10, Bis[2-(diphenylphosphanyl)benzoic acid]copper(I) tetrafluoroborate], the IC50 in [1] stood at 1100 ± 200 nM; in data set [2] it was 0.9 ± 0.1 µM; in data set [3], 0.6 ± 0.01 µM; in [4] (setting [9]), 300 ± 100 nM; in [5], 3.8 ± 1.1 µM; with LoVo-OXP cells, 90 ± 30 nM. Moreover, the values for the IC50 (in data set [6]; in data set [7]; in the data set with LoVo MDR cells) were 1500 ± 400 nM, 1800 ± 600 nM and 900 ± 400 nM, respectively.
Regarding `COc1ccccc1P(c1ccccc1)c1ccccc1.COc1ccccc1P(c1ccccc1)c1ccccc1.F[B-](F)(F)F.[Cu+]` [Compound 11, Bis[diphenyl(2-methoxyphenyl)phosphine] copper(I)tetrafluoroborate], in data set [4] (2008 cells, MTT), the “cytotoxicity against human ovarian cancer cells compared with cisplatin and oxaliplatin” value is on record as “the most cytotoxic derivative”. For the same molecule, in data set [4] (setting [10]), the IC50 turned out to be 400 ± 300 nM.
For the molecule `F[B-](F)(F)F.Oc1ccccc1P(c1ccccc1)c1ccccc1.Oc1ccccc1P(c1ccccc1)c1ccccc1.[Cu+]` [Compound 12, Bis[diphenyl(2-hydroxyphenyl)phosphine] copper(I)tetrafluoroborate], the IC50 in data set [4] (setting [10]) was 1100 ± 300 nM.
On to `COCOc1ccccc1P(c1ccccc1)c1ccccc1.COCOc1ccccc1P(c1ccccc1)c1ccccc1.F[B-](F)(F)F.[Cu+]` [Compound 13, Bis[diphenyl(2-(methoxymethoxy)phenyl)phosphine] copper(I)tetrafluoroborate], for which the IC50 in data set [4] (setting [10]) was found to be 1500 ± 400 nM.
Still for that read-out and setting: then `F[B-](F)(F)F.O=S(=O)(O)c1ccccc1P(c1ccccc1)c1ccccc1.O=S(=O)(O)c1ccccc1P(c1ccccc1)c1ccccc1.[Cu+]` [Compound 14, Bis[2-(diphenylphosphino]benzenesulfonic acid]copper(I) tetrafluoroborate], with 800 ± 200 nM.
As for `COc1cccc2c1C(=O)c1c(O)c3c(c(O)c1C2=O)C[C@@](O)(C(=O)CO)C[C@@H]3O[C@H]1C[C@H](N)[C@H](O)[C@H](C)O1` [doxorubicin, reference compound], the IC50 in data set [6] (Homo sapiens, LoVo) amounted to 1100 ± 500 nM; with LoVo MDR cells (Homo sapiens, LoVo) it was 19400 ± 2200 nM.
In the case of `O=C1[O][Pt]2([NH][C@@H]3CCCC[C@H]3[NH]2)[O]C1=O` [oxaliplatin, cyclohexane-1,2-diamineethanedioatoplatinum(II), reference compound], the IC50 stood at 3400 ± 1200 nM in [1]; 11.8 ± 3.2 µM in data set [2]; 16.1 ± 2.5 µM in [3]; 1700 ± 1000 nM in [4] (setting [9]); 1700 ± 1000 nM in data set [4] (setting [10]); 3.7 ± 1 µM in data set [5]. Also, the IC50 with LoVo-OXP cells was found to be 17500 ± 1800 nM; in data set [6], 3100 ± 300 nM; in [7], 1300 ± 300 nM; with LoVo MDR cells, 1400 ± 800 nM.
With “Bis[tris(4- fluorophenyl)phosphine] copper(I) nitrate [Compound 4]”, the IC50 in data set [1] was found to be 1400 ± 300 nM; in [2], 0.9 ± 0.1 µM; in [3] it was 6.2 ± 0.9 µM; in [4] (setting [9]), 1900 ± 500 nM; in data set [5], 0.8 ± 0.6 µM; in the data set on LoVo-OXP cells, 700 ± 100 nM. Besides, the IC50 was 900 ± 300 nM in data set [6], 1100 ± 500 nM in data set [7] and 1000 ± 100 nM in the data set on LoVo MDR cells.
In the case of “Bis[tris(4- methoxyphenyl)phosphine] copper(I) nitrate [Compound 3]”, the IC50 in [1] is 1300 ± 400 nM; in [2] it was 1.2 ± 0.01 µM; in data set [4] (setting [9]), 500 ± 100 nM; in [5] it was 3.1 ± 1.1 µM; in data set [7], 300 ± 200 nM; in the data set on LoVo MDR cells, 900 ± 200 nM.
As for “Bis[tris(4- methylphenyl)phosphine] copper(I) nitrate [Compound 2]”, the IC50 in data set [1] stood at 3100 ± 600 nM; in data set [2], 3.4 ± 0.2 µM; in [3] it was 0.3 ± 0.08 µM; in [4] (setting [9]), 1300 ± 300 nM; in data set [5], 3 ± 1.4 µM; in the data set on LoVo-OXP cells, 1300 ± 500 nM. Besides, the IC50 in data set [6] is 1400 ± 100 nM; in data set [7], 500 ± 200 nM; in the data set on LoVo MDR cells, 900 ± 600 nM.
Regarding “Bis[tris(N-EthylpiperazineN′- methyl)phosphine]copper(I) tetrafluoroborate [Compound 6]”, the IC50 in data set [1] was determined as 3100 ± 900 nM; in data set [2], 3.8 ± 0.3 µM; in data set [3], 13.3 ± 3.2 µM; in data set [4] (setting [9]) it was 14500 ± 1200 nM; in data set [5], 7.7 ± 0.5 µM; in the data set with LoVo-OXP cells, 1300 ± 500 nM. Moreover, the half-inhibitory concentration (IC50) in data set [6] amounted to 700 ± 300 nM; in [7] it was 2500 ± 100 nM; in the data set with LoVo MDR cells, 1200 ± 900 nM. The “Average tumor weight (mean ± SD, g)” value in data set [8] was 0.142 ± 0.09** g. Besides, the “Inhibition of tumor growth (%)” value in data set [8] (referred to control animals) was found to be 75.9%.
In the case of “Bis[tris(N-methylpiperazineN′- methyl)phosphine]copper(I) tetrafluoroborate [Compound 5]”, the IC50 in data set [2] was found to be 4.3 ± 1.2 µM; in data set [3], 7.3 ± 1.4 µM; in data set [4] (setting [9]), 5200 ± 1700 nM; in data set [7] it was 8000 ± 2600 nM.
With “Bis[tris(morpholineN- methyl)phosphine]copper(I) tetrafluoroborate [Compound 7]”, the IC50 is 6100 ± 1500 nM in data set [1]; 8.4 ± 1.8 µM in data set [2]; 12.3 ± 1.5 µM in data set [3]; 9200 ± 1000 nM in [4] (setting [9]); 15 ± 2.2 µM in data set [5]; 400 ± 200 nM in the data set on LoVo-OXP cells. In addition, the IC50 in [6] turned out to be 600 ± 300 nM; in [7] it was 6400 ± 500 nM; in the data set with LoVo MDR cells it was 400 ± 300 nM.
With “Bis[tris(phenylphosphine)] copper(I) nitrate [Compound 1]”, the IC50 in data set [1] amounted to 1900 ± 700 nM; in [2] it was 1.6 ± 0.1 µM; in data set [3] it was 4.5 ± 1.8 µM; in [4] (setting [9]) it was 2200 ± 100 nM; in [5] it was 0.2 ± 0.01 µM; with LoVo-OXP cells, 300 ± 100 nM. The IC50 came out at 400 ± 30 nM in [6], 1800 ± 800 nM in data set [7] and 500 ± 200 nM in the data set on LoVo MDR cells.
As to “Bis[tris(thiomorpholineN- methyl)phosphine]copper(I) tetrafluoroborate [Compound 8]”, the IC50 in data set [2] came to 5.3 ± 1.2 µM; in [3], 7.7 ± 1.3 µM; in data set [4] (setting [9]) it was 11900 ± 100 nM; in data set [7], 10200 ± 100 nM.
